Assay [1] addresses T1, ERCC1-XPF (Homo sapiens, UniProt P07992+Q92889).
T1 construct: made in house; host or cells: Sf9 insect cells, baculovirus (obtained from Aziz Sancar)
T1 sequence (Q92889 1-916): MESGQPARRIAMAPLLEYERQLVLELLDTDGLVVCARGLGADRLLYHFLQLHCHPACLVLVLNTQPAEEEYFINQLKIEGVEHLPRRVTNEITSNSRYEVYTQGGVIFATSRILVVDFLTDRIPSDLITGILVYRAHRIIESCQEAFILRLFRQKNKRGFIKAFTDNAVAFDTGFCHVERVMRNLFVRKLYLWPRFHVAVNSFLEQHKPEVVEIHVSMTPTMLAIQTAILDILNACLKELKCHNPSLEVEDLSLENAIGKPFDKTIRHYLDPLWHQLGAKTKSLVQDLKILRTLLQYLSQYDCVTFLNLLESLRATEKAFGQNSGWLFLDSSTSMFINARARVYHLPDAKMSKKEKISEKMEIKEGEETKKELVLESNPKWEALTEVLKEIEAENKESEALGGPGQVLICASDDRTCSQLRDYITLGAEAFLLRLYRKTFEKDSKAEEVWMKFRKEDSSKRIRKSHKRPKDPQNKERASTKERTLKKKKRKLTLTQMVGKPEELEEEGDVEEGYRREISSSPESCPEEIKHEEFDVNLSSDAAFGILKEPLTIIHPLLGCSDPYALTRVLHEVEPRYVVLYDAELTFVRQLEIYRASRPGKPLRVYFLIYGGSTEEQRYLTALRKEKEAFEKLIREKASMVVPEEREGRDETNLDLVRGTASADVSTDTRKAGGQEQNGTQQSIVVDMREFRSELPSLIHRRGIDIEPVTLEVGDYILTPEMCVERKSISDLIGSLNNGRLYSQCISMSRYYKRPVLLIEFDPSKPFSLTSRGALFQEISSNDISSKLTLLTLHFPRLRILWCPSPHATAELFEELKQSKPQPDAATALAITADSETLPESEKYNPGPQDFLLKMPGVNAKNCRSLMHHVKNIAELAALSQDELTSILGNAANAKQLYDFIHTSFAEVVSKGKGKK
T1 sequence (P07992 1-297): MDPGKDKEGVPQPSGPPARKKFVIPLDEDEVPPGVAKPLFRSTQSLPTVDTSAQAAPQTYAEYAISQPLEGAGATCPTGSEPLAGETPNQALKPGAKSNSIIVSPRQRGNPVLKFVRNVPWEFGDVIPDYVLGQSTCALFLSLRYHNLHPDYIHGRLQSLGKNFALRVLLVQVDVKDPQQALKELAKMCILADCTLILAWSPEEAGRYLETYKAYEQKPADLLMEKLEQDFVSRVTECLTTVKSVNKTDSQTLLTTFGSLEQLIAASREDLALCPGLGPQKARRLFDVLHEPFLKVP
Put plainly: HTS fluorescence assay of ERCC1-XPF endonuclease activity. The assay is classed as biochemical. The text has this:
To screen for ERCC1-XPF inhibition, an existing in vitro assay was optimized to a 96-well plate format to allow for screening of compound libraries (NCI-DTP diversity set). These compounds and subsequent vialed compounds were from the Drug Synthesis and Chemistry Branch, Developmental Therapeutics Program, Division of Cancer Treatment and Diagnosis at the National Cancer Institute. We used purified ERCC1-XPF (Supplementary Figure S1) and describe the purification procedure in Supplementary Information. The initial cuvette-based assay was optimized for DNA, MgCl2 concentrations as well as the incubation time to be used in the fluorescence assay in a 96 well plate format (Supplementary Figure S2). The assay consists of a 10 nM DNA (Q+Fl substrate annealed, described below) and 7.5 nM ERCC1-XPF protein in buffer containing 50 mM Tris-HCl pH8.0, 2 mM MgCl2, 0.1 mM BSA, and 0.5 mM β-mercaptoethanol. For preliminary screening, 150 μL of DNA was added to each well and the fluorescence signal was measured at 525 nm following excitation at 485 nm. Compounds or controls were then added to individual wells for a total of 80 compounds on each plate and the fluorescent signal was re-measured. We initially ran the screen using 50 μM compound and then repeated using 10 μM compound. 16 controls were used per plate, which consisted of buffer alone, DNA alone, ERCC1-XPF alone, 10 nM fluorescein ssDNA (positive signal), and 10 nM Q-Fl DNA with 7.5 nM ERCC1-XPF (positive signal). 7.5 nM ERCC1-XPF was added to each well containing the compounds and DNA and incubated for 30 minutes at 37°C after which the fluorescent signal was measured again.
The synthetic DNA substrate mimics a native forked ssDNA-dsDNA substrate of ERCC1-XPF (Figure 1A). This forked DNA substrate has a dsDNA region (14 bases) and a region containing two ssDNA flaps (12 bases each). One 26-mer DNA oligonucleotide contains a site-specific fluorescein modification at the indicated position (Fl Oligo: 5' - GCCAGCGCTCGGAT(AminoC6dT)(FLSN) TTTTTTTTTTT). The semi-complementary strand was synthesized containing a DABCYL quencher (Q) molecule at the depicted position (Q Oligo: 5' - TTTTTTTTTTT (AminoC6dT)(Dabcyl) ATCCGAGCGCTGGC; Figure 1A). The fluorescein (*) molecule has an excitation peak centered at 485 nm and an emission peak centered at 525 nm. The quencher (Q) molecule is able to quench the fluorescence signal of the fluorescein when it is in close proximity. The design of the semi-duplex DNA substrate is such that the fluorescein and DABCYL quencher are directly opposite one another at the double-stranded and single-stranded DNA junction (Figure 1A). […] Upon cleavage by ERCC1-XPF, (~4-5 bases from the dsDNA-ssDNA) the fluorescein label on the cleaved DNA is released into solution and results in a significant increase in fluorescence as the quencher is no longer in close proximity. The DNA substrate is also incorporated with a restriction enzyme site (HhaI) within the duplex DNA that results in a cleavage pattern similar to ERCC1-XPF. This serves as a positive control and allows assessment of ERCC1-XPF cleavage product. This DNA substrate is used in the solution based fluorescence screening assay to screen for inhibitors of ERCC1-XPF endonuclease activity. In the 96 well platform, the Z factor was calculated to be ~0.87 indicating a highly robust assay and highly suitable for a HTS. A Molecular Devices Spectramax M5 plate reader was used for fluorescence detection. The DNA substrate was the same for gel-based assays besides the fluorescent/quencher modifications and 5'-labeling using γ-ATP^32. For the secondary screen, the reaction was setup in a tube with 10 nM DNA, 7.5 nM XPF-ERCC1, 20 U/ml of HhaI, or 7.5 nM XPG (Supplementary Figure S3A) in nuclease reaction buffer with compound titration and incubated at 37°C for 30 minutes. The reaction was stopped by chelating the metal in the buffer and read in the Spectramax M5 plate reader.

In assay [2] the test system is H460 cells. The assay is described as follows: Cisplatin intrastrand adduct repair by ELISA. To be noted: 72 hours (last time point), compound 15 μM 2 h then cisplatin at IC90 2 h; relative to 0 hour. In kind it is cell-based.
The test system of assay [3] is H460 cells. Put plainly: Cisplatin interstrand crosslink repair by comet assay. The assay is classed as cell-based. To be noted: compound 15 μM 2 h then cisplatin at IC90; 0-72 h.
Protocol: (B) After treatment, comet assay was performed as described at different time intervals (0, 24, 48 and 72 h). The percentage of interstrand crosslinks remaining was calculated using olive tail moment. Results are represented as mean ± SEM of three independent experiments.
The data is expressed as the percentage of crosslinks remaining at the time points assessed.
Cells were treated with compound (Hit control (9:1 DMSO-glycerol). After incubation at 37°C 1 or Hit 2) and cisplatin or just cisplatin alone in serum for 30 minutes, 2 μL of the pre-incubate was diluted into a free media. […] Cells were further treated with 100 μM
Cells were then trypsinized, pelleted and resuspended in 1% low melting point agarose.
Setting [4] is: IC50s calculated by CompuSyn, SD from 3 plots, read-out: ERCC1-XPF IC50.

Where two headings read alike, the source gives them in different places.

For the compound `Cc1ccc(S(=O)(=O)Oc2cc(S(=O)(=O)O)cc3cc(S(=O)(=O)O)cc(N)c23)cc1` [NSC16168], the IC50 in assay [1] (setting [4]) was 420 ± 112 nM. Besides, the intrastrand adducts remaining in assay [2] is ~ 60%. Also, in assay [3], the “effect on ICL repair” value is “does not have any effect on ICL repair”.
For the compound `Oc1cc(O)c2c(c1)OC(c1ccc(O)c(O)c1)C(O)C2c1c(O)cc(O)c2c1OC(c1ccc(O)c(O)c1)C(O)C2` (stereo not shown) [NSC143099], the IC50 in assay [1] (setting [4]) is 22 ± 3 nM; in assay [1] (read-out: 50% inhibition of ERCC1-XPF), roughly 22 nM. In addition, the intrastrand adducts remaining in assay [2] is ~ 65%. Moreover, the “effect on ICL repair” value in assay [3] is listed as “ICL repair was significantly reduced”.

The values above are taken from paper PMC5342726, “Identification of small molecule inhibitors of ERCC1-XPF that inhibit DNA repair and potentiate cisplatin efficacy in cancer cells” (Oncotarget, 2016).
